The record followed here is ChEMBL document CHEMBL1201862, “PubChem BioAssay data set” (2004).

One assay concerns HeLa. As to the kind of experiment: HeLa cell cytotoxicity, dose response, cytotoxicity control for MITF activator project, CellTiter-Glo luminescence, cherry-pick samples (AID 540259). The assay is classed as functional, cell-based. As to conditions: Homo sapiens.
The target in assay [1] is T1, Carboxy-terminal domain RNA polymerase II polypeptide A small phosphatase 1 (Homo sapiens, UniProt Q9GZU7).
T1 sequence (Q9GZU7 whole entry): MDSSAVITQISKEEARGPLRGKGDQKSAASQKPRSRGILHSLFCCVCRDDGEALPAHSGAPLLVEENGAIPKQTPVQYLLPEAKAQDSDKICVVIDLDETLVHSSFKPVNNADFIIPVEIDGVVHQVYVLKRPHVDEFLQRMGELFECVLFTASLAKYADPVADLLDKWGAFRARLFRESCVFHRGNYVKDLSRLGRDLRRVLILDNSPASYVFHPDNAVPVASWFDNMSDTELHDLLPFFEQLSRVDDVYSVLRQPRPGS
The assay is described as follows: inhibitors of CTDSP1, concentration-response testing, biochemical assay, absorbance-based, actives from ultra-high-throughput screening (AID 540297). The assay is classed as functional.

Assay [2] concerns the target T2, Probable nicotinate-nucleotide adenylyltransferase (Staphylococcus aureus (strain N315), UniProt P65502). It counts as functional, Staphylococcus aureus subsp. aureus N315.
In assay [3] the target is T2, Probable nicotinate-nucleotide adenylyltransferase. It counts as functional, Staphylococcus aureus subsp. aureus N315. The settings on record: read-out: IC50_Mean.
For a further assay, the system named is INS1. As to the kind of experiment: beta cell apoptosis inhibitors, cytokine rescue, dose response, luminescence, retest (AID 449756).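 Note: cell death triggered by IL-1 beta plus TNF-alpha plus IFN-gamma mixture; protective hits raise ATP signal compared with cytokine alone wells.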 The assay is classed as functional, cell-based. As to conditions: Rattus norvegicus.
The next assay concerns the target Protein Wnt-3a (Mus musculus, UniProt P27467). The assay is described as follows: Wnt3a-driven reporter signaling inhibition, dose response, selectivity assay for Gli-SUFU antagonist project, Wnt-LIGHT cells, luminescence (AID 651570).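 Note: Wnt-LIGHT reporter cells stimulated with conditioned medium from Wnt3a-producing cells.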 The assay is classed as functional. The settings on record: read-out: IC50_Mean.
Assay [4] addresses T3, High affinity choline transporter 1 (Homo sapiens, UniProt Q9GZV3).
T3 sequence (Q9GZV3 whole entry): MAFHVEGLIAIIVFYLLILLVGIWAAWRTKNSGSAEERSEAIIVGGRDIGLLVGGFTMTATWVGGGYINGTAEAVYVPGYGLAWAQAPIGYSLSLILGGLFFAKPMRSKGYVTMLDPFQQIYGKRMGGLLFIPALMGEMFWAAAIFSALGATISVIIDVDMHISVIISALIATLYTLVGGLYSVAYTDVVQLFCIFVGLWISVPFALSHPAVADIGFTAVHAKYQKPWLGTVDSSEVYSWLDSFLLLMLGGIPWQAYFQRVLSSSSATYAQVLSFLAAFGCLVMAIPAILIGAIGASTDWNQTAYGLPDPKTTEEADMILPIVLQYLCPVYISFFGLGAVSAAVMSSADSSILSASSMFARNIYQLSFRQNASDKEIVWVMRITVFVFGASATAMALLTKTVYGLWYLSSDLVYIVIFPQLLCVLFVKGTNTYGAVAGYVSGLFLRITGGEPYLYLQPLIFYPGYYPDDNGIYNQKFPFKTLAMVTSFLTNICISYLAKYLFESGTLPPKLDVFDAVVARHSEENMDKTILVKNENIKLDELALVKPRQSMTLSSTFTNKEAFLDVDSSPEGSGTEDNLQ
The assay is described as follows: CHT inhibitors, dose response, cell-based, 5-point CRC, membrane potential dye (AID 504840). It counts as functional.

The target of assay [5] is T3, High affinity choline transporter 1. The assay is described as follows: CHT inhibitors, dose response, cell-based, 10-point CRC, membrane potential dye (AID 588401).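 Note: membrane potential dye fluorescence of choline-evoked depolarization via CHT.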 The assay is classed as functional.
A short description of assay [6]: HEp-2 cell cytotoxicity, dose response, cytotoxicity control for RSV inhibitor project, HTS (AID 2410). The assay is classed as functional. As to conditions: human respiratory syncytial virus.
Assay [7] can be described thus: Luminescence Cell-Based Dose Confirmation HTS to Identify Activators of 5'UTR Stem-Loop Driven Alpha-Synuclein mRNA Translation in H4 Neuroglioblastoma Cells. [Related pubchem assays: 1829 (Project Summary), 1814 (Primary HTS)]. The assay is classed as functional.
Assay [8] can be described thus: Luminescence Cell-Based Dose Response HTS to Identify Activators of Luciferase Translation or Activity in H4 […] Cells. [Related pubchem assays: 1829 (Project Summary), 1814 (Primary HTS)]. It counts as functional.
In a further assay the test system is H4. As to the kind of experiment: Luminescence Cell-Based Dose Response HTS to Identify Activators of 5'UTR Stem-Loop Driven Prion Protein mRNA Translation in H4 Neuroglioblastoma Cells. [Related pubchem assays: 1829 (Project Summary), 1814 (Primary HTS)]. It counts as functional. As to conditions: Homo sapiens.
Assay [9] deals with T4, Rac GTPase-activating protein 1 (Homo sapiens, UniProt Q9H0H5).
T4 sequence (Q9H0H5 whole entry): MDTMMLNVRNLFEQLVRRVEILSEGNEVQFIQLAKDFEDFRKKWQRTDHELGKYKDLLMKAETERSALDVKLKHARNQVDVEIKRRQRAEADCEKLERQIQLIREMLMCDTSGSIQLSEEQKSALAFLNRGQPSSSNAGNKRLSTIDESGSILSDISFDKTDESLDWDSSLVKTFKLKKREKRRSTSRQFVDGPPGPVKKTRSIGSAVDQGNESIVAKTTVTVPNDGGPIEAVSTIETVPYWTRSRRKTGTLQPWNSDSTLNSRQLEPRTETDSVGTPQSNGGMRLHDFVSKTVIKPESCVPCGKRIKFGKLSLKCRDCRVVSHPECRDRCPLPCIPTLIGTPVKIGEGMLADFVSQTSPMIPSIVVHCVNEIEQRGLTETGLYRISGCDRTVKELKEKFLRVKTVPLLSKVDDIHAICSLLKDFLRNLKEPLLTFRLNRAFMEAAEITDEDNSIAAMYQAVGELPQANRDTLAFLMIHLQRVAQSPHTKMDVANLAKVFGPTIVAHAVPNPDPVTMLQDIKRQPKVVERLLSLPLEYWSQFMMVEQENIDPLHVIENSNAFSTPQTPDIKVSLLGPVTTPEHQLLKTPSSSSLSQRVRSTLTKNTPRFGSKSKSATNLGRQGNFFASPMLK
The assay is described as follows: MgcRacGAP GTPase-activating activity inhibitors, confirmation, biochemical, ADP Hunter fluorescence, primary and confirmatory (AID 624330). It counts as functional.

Assay [10] can be described thus: HeLa cell cytotoxicity, dose response, cytotoxicity control for MgcRacGAP inhibitor project (AID 624300). The assay is classed as functional.
The target in assay [11] is T5, Small ubiquitin-related modifier 1 (Homo sapiens, UniProt P63165). The assay is described as follows: inhibitors of SUMO1 peptide binding, dose response, biochemical, fluorescence polarization, uHTS hits (AID 624382). It counts as functional. The settings on record: read-out: IC50_Mean. (In general: Fluorescence polarisation rises when a labelled molecule tumbles more slowly, as on binding a larger partner.)

Assay [12] addresses T5, Small ubiquitin-related modifier 1. As to the kind of experiment: inhibitors of SUMO1 partner interactions, dose response, biochemical, FRET (AID 624383). The assay is classed as functional. As to conditions: read-out: IC50_Mean.
Assay [13] has as its system Vero. As to the kind of experiment: cells. As to conditions: Chlorocebus sabaeus. It counts as functional, cell-based.
Assay [14] addresses T6, Microphthalmia-associated transcription factor (Homo sapiens, UniProt O75030).
T6 sequence (O75030 whole entry): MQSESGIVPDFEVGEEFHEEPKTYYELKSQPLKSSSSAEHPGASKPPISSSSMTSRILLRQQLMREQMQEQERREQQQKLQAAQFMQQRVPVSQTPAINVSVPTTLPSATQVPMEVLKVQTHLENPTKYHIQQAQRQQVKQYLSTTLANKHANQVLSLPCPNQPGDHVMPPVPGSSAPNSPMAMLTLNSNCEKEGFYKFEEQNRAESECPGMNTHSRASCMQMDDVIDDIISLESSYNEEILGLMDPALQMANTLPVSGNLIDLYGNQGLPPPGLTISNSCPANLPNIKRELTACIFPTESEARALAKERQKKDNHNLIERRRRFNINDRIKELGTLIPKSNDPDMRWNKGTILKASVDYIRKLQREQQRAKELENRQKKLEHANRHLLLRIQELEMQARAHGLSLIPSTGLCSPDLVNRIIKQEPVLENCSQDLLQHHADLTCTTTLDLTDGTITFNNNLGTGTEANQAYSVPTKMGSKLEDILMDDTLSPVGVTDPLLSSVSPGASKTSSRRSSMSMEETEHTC
As to the kind of experiment: TRPM1 promoter luciferase signal decrease, dose response, MITF inhibitor project, cell-based, SK-MEL-5, cherry-picked, set 3 (AID 493073).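 Note: SK-MEL-5 melanoma cells with luciferase driven by the MITF target TRPM1 promoter.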 The assay is classed as functional.

Assay [15] concerns Vero. The assay is described as follows: cells. The assay is classed as functional. The settings on record: Chlorocebus sabaeus.

Calls of active or inactive are those of the source.

T2 sequence (P65502 whole entry): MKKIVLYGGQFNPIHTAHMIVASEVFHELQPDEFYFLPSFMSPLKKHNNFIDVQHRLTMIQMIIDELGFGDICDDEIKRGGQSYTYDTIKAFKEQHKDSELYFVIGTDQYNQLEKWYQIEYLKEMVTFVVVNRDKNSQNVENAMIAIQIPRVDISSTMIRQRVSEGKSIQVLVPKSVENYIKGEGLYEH
T5 sequence (P63165 whole entry): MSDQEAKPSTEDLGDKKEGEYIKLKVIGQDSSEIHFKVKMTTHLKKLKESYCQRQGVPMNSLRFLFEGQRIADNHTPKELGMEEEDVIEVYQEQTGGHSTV
Protein Wnt-3a, sequence (P27467 whole entry): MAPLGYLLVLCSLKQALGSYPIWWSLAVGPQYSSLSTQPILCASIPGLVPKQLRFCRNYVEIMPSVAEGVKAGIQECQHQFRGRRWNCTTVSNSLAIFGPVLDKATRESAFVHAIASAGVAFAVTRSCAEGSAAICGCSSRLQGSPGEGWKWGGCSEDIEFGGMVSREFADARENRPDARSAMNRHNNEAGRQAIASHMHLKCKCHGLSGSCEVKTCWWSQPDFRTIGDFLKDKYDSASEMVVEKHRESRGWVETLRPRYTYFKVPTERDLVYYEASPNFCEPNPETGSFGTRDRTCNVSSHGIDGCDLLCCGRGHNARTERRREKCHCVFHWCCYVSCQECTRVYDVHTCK

For orientation: AC50 means the concentration giving half of the maximal activity seen. As to `CCNc1nc(N)nc(Oc2ccc(C(=O)OC)cc2)n1`, the AC50 with HeLa was 245 µM (active).

As for `C[C@@H]1CN([C@H](C)CO)C(=O)c2cc(NC(=O)c3ccncc3)ccc2O[C@@H]1CN(C)C(=O)Nc1ccccc1`, the IC50 was 12.8 µM (active) in assay [1], 26.9 µM (active) in assay [2] and 35.2 µM (active) in [3].

Turning to `CCCCSc1nc2sc3c(c2c(=O)n1-c1ccc(C)cc1)CCN(C)C3`, the concentration at half-maximal activity (AC50) in the assay with INS1 was 10.1 µM (active). Besides, the IC50 on Protein Wnt-3a was 10.8 µM (active).

With `COc1cccc(CCNC(=O)c2ccc(OC)c(OC3CCN(C(C)C)CC3)c2)c1`, the IC50 was 5 µM (active) in [4] and 3.98 µM (active) in assay [5].

One may read the CC50 as the concentration giving 50% cytotoxicity. As a reminder, the EC50 is the midpoint of the concentration-response curve. On to `COc1ccccc1N1CCN(C2=Nc3cccc4cccc2c34)CC1`, for which the CC50 in [6] is 25.4 µM (active). In addition, the half-maximal effective concentration (EC50) in assay [7] was 43.3 µM (active); in assay [8] it was 19.1 µM (active); in the assay with H4, 18.5 µM (active). Also, the half-maximal activity concentration (AC50) in the assay with HeLa is 27.1 µM (active).

Consider `O=C(Nc1ccc(N2CCCC2)cc1)c1cc(Br)ccc1Cl`, for which the IC50 is 21.7 µM (active) in assay [2] and 35.9 µM (active) in assay [3].

As to `Oc1ccc(N=Nc2ccccc2)cc1`, the concentration at half-maximal activity (AC50) in the assay with HeLa is 98.1 µM (active). Moreover, the IC50 in [9] was 70.9 µM (active).

With `Cn1c(-c2ccc(Cl)cc2)cnc1NCc1cc2c(cc1[N+](=O)[O-])OCO2`, the half-maximal cytotoxic concentration (CC50) in assay [10] is 100 µM (active). Also, the IC50 in assay [9] was 73.5 µM (active).

Consider `COc1ccc(C(=O)Nc2nc3cc4c(cc3s2)OCCO4)c(OC)c1`, for which the results for the IC50 in assay [11] and in [12] were > 66.6 µM (inactive) and 2.77 µM (active), respectively.

Regarding `O=C(COC(=O)CCC(=O)c1ccc(F)cc1)Nc1ccc2[nH]c(O)nc2c1`, the results for the IC50 in [11] and in [12] were > 66.6 µM (inactive) and 17.6 µM (active), respectively.

Turning to `Cc1ccc(S(=O)(=O)Nc2ccc(Nc3nccn4c(-c5cccc(OC(F)(F)F)c5)cnc34)cc2)cc1`, the IC50 in assay [2] is 16.2 µM (active); in assay [3] it was 27.2 µM (active).

As for `C/C(N)=C(/C#N)C(=O)COC(=O)c1cc(C)n(-c2ccc(F)cc2)c1C`, the CC50 in assay [6] is 18.8 µM (active). In addition, the IC50 with Vero [13] was 8.93 µM (active); in “cells”, 29.9 µM (active).

On to `CCCN1CCC(NCc2cn(C)nc2-c2ccc(Oc3ccccc3)cc2)CC1`, for which the AC50 in assay [14] is 8.35 µM (active). In addition, the IC50 in the assay with Vero [13] is 23.1 µM (active). Further, the CC50 in the assay with Vero [15] is > 25 µM (active).
